Measured values taken from patent US9745581B2, “Methods of treating and diagnosing diseases using agents that regulate the alternative splicing pathway” (Yissum Research Development Company of the Hebrew …, priority 2012, dated 2017).
Entries after “also recorded” stand apart in the source; their conditions may differ.

How the values were obtained:
Mnk1/2 [1] = assay: Western blot of p38-MAPK phosphorylation in MEFs treated with Mnk1/2 kinase inhibitor; type: cell-based, mouse; details: CGP 57380 for 4 h, FIG. 5E
Excerpt: (A) MCF-10A cells were transduced with the indicated retroviruses encoding for Mnk2 isoforms or Mnk2aKD. Total protein from stable pools was extracted and separated on SDS-PAGE and was subjected to Western blot analysis with the indicated antibodies. Numbers represent ratio of p-p38/total p38 normalized to that of pBABE (arbitrarily set at 1)±SD (n=2). (B) MCF-10A cells described in (A) were transduced by H-RAS^V12 and after selection cells were lysed and subjected to Western blot analysis with the indicated antibodies. Numbers representing ratio of p-p38/total p38 were calculated as described in (A) (n=2). (C) Immortal MEFs from Mnk2^−/− mouse were transduced with retrovirus encoding either no mammalian protein (pBABE) or various Mnk2 variants. […] (D) Immortal MEFs from WT, Mnk1^−/− or Mnk2^−/− mice were lysed and analyzed as in (A). (E) Immortal MEFs described in (D) were seeded in 6-well plates. […]
(A) Cell lines from breast immortal or cancer (MCF-7, MDA-MB-231, SUM-149, SUM-159, MDA-MB-468) cell lines were seeded in 6-well plates and 24 h later were lysed and subjected to Western blot analysis with the indicated antibodies. (B-C) Quantitation of p38 and eIF4E phosphorylation levels. […] (G) MCF-10A cells were seeded in 6-well plates, treated and analyzed as in (D). […]

Mnk1/2 [2] = assay: Western blot of p38-MAPK phosphorylation in MCF-10A cells treated with Mnk1/2 kinase inhibitor; type: cell-based, human; details: CGP 57380 for 4 h, FIG. 8G
Method: (A) Cell lines from breast immortal or cancer (MCF-7, MDA-MB-231, SUM-149, SUM-159, MDA-MB-468) cell lines were seeded in 6-well plates and 24 h later were lysed and subjected to Western blot analysis with the indicated antibodies. (B-C) Quantitation of p38 and eIF4E phosphorylation levels. The level of phosphorylated p38 and eIF4E was normalized to that of their total level. Results are presented as an average±SD (n=2). (D-F) Immortal MEFs from WT (Mnk 1/2 WT), Mnk1^−/− or Mnk2^−/− mice were seeded in 6-well plates. 24 h later cells were either treated with the vehicle (DMSO) or treated with the Mnk1/2 kinase inhibitor, CGP 57380 (CGP) at the indicated concentrations for 4 h, and subjected to Western blot analysis with the indicated antibodies. (G) MCF-10A cells were seeded in 6-well plates, treated and analyzed as in (D). […] C-myc (nuclear) and caspase-2 (cytoplasmic) served as fractionation controls.

Mnk1/2 [3] = assay: Q-RT-PCR of p38α target genes FOS and COX-2 in MCF-10A cells; type: cell-based, human; details: serum starved, CGP 57380 for 8-10 h, FIG. 7E
Method: (C). RNA from WT MEFs, Mnk2^−/− MEFS and Mnk2^−/− MEFS transduced with Mnk2a was extracted and the levels of FOS and COX-2 were analyzed by Q-RT-PCR. (D). RNA from MCF-10A cells transduced with the indicated Mnk2 isoforms and the indicated Mnk2a mutants was extracted and the levels of FOS and COX-2 were measured as described above. (E). MCF-10A cells were seeded in 10 cm plates. 24 h later, cells were serum starved for an additional 24 h, then treated with Mnk1/2 inhibitor CGP 57380 at the indicated concentrations for 8-10 h. RNA from cells was extracted and the levels of p38α-targets genes; FOS and COX-2 were measured by Q-RT-PCR as described above. (F). MCF-10A cells described in (D) were serum starved for 24 h and then treated with 0.5 μM anisomycin for 24 h and were subjected to trypan-blue exclusion assay (Graph). Bottom panel: cells described in (F) were centrifuged and lysed with Laemmli buffer and proteins were subjected to Western blot analysis. […]
Q-RT-PCR: Total RNA was extracted with Tri reagent (Sigma) and 2 μg of total RNA was reverse transcribed using the AffinityScript (Stratagene) reverse transcriptase. The mRNA levels of FOS, and COX-2 were determined in MCF-10A breast cell lines by performing quantitative PCR with SYBER Green (SYBR® Premix Ex Taq™ # RR041A) using the CFX96 (Bio-Rad) machine. […]

Panc-1 cells = assay: Anisomycin-induced cell death of Panc-1 cells expressing Mnk2a, with or without p38 inhibitor; type: cell-based, human; details: Panc-1, 0.5 μM anisomycin, 20 μM SB203580, FIG. 5J
Method: After selection with hygromycin transductants were maintained in growth factor-free medium in suspension for 48 h. Cell death was measured using the trypan blue exclusion assay. (J) Human pancreatic cancer cells Panc-1 were seeded on 96-well plates (6000 cells/well). Following starvation cells were treated with 0.5 μM anisomycin in the presence or absence of 20 μM SB203580. (*, **p≦0.01). (K) MCF-10A cells were transduced as in (I). After selection cells were seeded in 6-well plates. 24 h later cells were serum starved in a growth factor-free medium for 24 h. Following starvation cells were treated with 0.5 M Sorbitol (to induce osmotic shock) and 24 h later were stained with trypan blue (n=2). (L) MCF-10A transduced with the indicated retroviruses encoding for shRNAs against Mnk2a were seeded as in (K). (*, p≦0.01, ** p≦0.05). […] 10 days post selection with hygromycin cells were assessed for colony formation with methylene blue staining. n=3. […]
Survival and apoptosis assays: MCF-10A or Panc-1 cells were transduced with the indicated retroviruses. […] Cells were fixed and stained with methylene blue and the absorbance at 650 nm of the acid-extracted stain was measured on a plate reader (BioRad) and was normalized to cell absorbance at “Time 0”. […] 10 μl of the cell suspension was mixed with 10 μl of 4% trypan blue solution and live/dead cells were counted in Bio-Rad TC-10 Automated Cell Counter. […]

MCF-10A cells [4] = assay: Cell death induced by constitutively active p38α in MCF-10A cells expressing Mnk2a; type: cell-based, human; details: 20 μM SB203580 for 48 hours, FIGS. 4A-B
Excerpt: (§1) (C-D). […] (*, **, ***p≦0.01n=3).

MCF-10A cells [5] = assay: Soft agar colony formation of MCF-10A cells co-transduced with Mnk2a and oncogenic Ras; type: cell-based, human; details: H-RAS V12, colonies counted 14 days later, FIGS. 4F-G
Method: as §1
Anchorage-independent growth: Colony formation in soft agar was assayed as described previously (17). Plates were incubated at 37° C. and 5% CO2. After 10-18 days, colonies were counted from ten different fields in each of two wells for each transductant pool and the average number of colonies per well was calculated. The colonies were stained and photographed under a light microscope at 100× magnification.

p38 = details: MCF-10A, 1 μM anisomycin, 10 μM SB203580, FIG. 4E
Method: (E) MCF-10A cells transduced with retroviruses containing the indicated Mnk2 isoforms or a kinase dead version of Mnk2a (Mnk2aKD) or with isoform specific shRNAs against Mnk2a were treated with 1 μM anisomycin, in the presence or absence of 10 μM SB203580. Cells were lysed and proteins were subjected to Western blot analysis with the indicated antibodies.
Immunoblotting: Cells were lysed in Laemmli buffer and analyzed for total protein concentration as described previously (17). 30 μg of total protein from each cell lysate was separated by SDS-PAGE and transferred to a nitrocellulose membrane. The membranes were blocked, probed with antibodies and detected using enhanced chemiluminescence. Primary antibodies were anti phospho-eIF4E Ser209 (1:1000), eIF4E (1:1000), phospho-p38 (Thr180/Tyr182) (1:1000), phospho-MNK (T197/T202) (1:1000), phospho-MK2 (1:1,000), MK2 (1:1,000), (Cell Signaling Technology). […] Secondary antibodies were HRP-conjugated goat anti-mouse, goat anti-rabbit or donkey anti-goat IgG (H+L) (1:10,000, Jackson Laboratories).

[6] = test system: Ras-transformed MCF-10A breast cells; assay: Colony survival of Ras-transformed MCF-10A cells after PNA incubation; type: cell-based, human; details: 0.05 μM PNA for 5 hours, seeded 20 cells/well, colonies counted 14 days later, versus scrambled PNA
Method: (§2) FIGS. 36A-C. […] Ras-transformed MCF-10A cells were incubated for 5 hours with 0.05 μM scrambled (non-specific) PNA or MNK2a specific PNA (see the position of the PNA marked in red in the scheme). 24 h later cells were counted and seeded in low density (20 cells/well) in 6-well plates. 14 days later, surviving colonies were counted and photographed.

Mnk2 splicing = assay: RT-PCR of Mnk2 splicing after PNA treatment; type: cell-based, human; details: Ras-transformed MCF-10A cells, FIG. 36C
Method: as §2
RT-PCR: Total RNA was extracted with Tri reagent (Sigma) and 2 μg of total RNA was reverse transcribed using the AffinityScript (Stratagene) reverse transcriptase. PCR was performed on 1/10 (2 μl) of the cDNA, in 50 μl reactions containing 0.2 mM dNTP mix, 10×PCR buffer with 15 mM MgCl2 (ABI), 2.5 units of TaqGold (ABI) and 0.2 […]; 5% (v/v) DMSO was included in some reactions. PCR conditions were 95° C. for 5 min, then 33 cycles of 94° C. for 30 s, 57° C. for 30 s and 72° C. for 45 s, followed by 10 min at 72° C. PCR products were separated on 1.5% or 2% agarose gels. Primers are listed herein below.

## Nc1ncnc2n[nH]c(Nc3ccc(F)cc3)c12 [CGP 57380]
Mnk1/2 [1]; Mnk2-/- MEFs, FIG. 8D-F
  p38 phosphorylation in Mnk2-/- MEFs: could not be further reduced
Mnk1/2 [1]; WT and Mnk1-/- MEFs
  p38-MAPK phosphorylation (T180, Y182) in WT and Mnk1-/- MEFs: reduced p38-MAPK phosphorylation
Mnk1/2 [2]
  p38-MAPK phosphorylation in MCF-10A cells: reduced p38-MAPK phosphorylation
Mnk1/2 [3]
  expression of p38-MAPK target genes (FOS, COX-2): reduced the expression p38-MAPK target genes

## C[S+]([O-])c1ccc(-c2nc(-c3ccncc3)c(-c3ccc(F)cc3)[nH]2)cc1 (stereo not shown) [SB203580]
Panc-1 cells
  anisomycin-induced cell death of cells expressing Mnk2a: partially rescued; also recorded: rescued Panc-1 cells from Mnk2a-induced sensitivity to anisomycin treatment
MCF-10A cells [4]
  cell death upon active p38-MAPK transduction in cells expressing Mnk2a: inhibited by SB203580
MCF-10A cells [5]
  colony formation in soft agar of cells co-transduced with Mnk2a and Ras: rescued the ability of cells co-transduced with Mnk2a and Ras to form colonies in soft agar
p38
  p38 activity measured by phosphorylation of its substrate MK-2: efficiently inhibited p38 activity

## PNA: PNA based molecule hybridizing to the bridging region between exon 14b and the preceding intron, preventing Mnk2b generation; likely SEQ ID NO: 157 (AGACTTCCACCCTGTCAG; PNA modified oligonucleotide, pattern not given here)
[6]
  survival of Ras-transformed MCF-10A breast cells (surviving colonies): reduces survival; also recorded: decreased the survival
Mnk2 splicing
  Mnk2 splicing (Mnk2a level) by RT-PCR: can modulate Mnk2 splicing to elevate Mnk2a
